According to the Kinase Knowledgebase extract (Sharma et al. 2016):

Biological target: PIK3CG (human) (UniProt P48736)
Assay: Inhibition of PIK3CG Kinase Activity

PIK3CG (human), sequence (P48736 whole entry, looked up): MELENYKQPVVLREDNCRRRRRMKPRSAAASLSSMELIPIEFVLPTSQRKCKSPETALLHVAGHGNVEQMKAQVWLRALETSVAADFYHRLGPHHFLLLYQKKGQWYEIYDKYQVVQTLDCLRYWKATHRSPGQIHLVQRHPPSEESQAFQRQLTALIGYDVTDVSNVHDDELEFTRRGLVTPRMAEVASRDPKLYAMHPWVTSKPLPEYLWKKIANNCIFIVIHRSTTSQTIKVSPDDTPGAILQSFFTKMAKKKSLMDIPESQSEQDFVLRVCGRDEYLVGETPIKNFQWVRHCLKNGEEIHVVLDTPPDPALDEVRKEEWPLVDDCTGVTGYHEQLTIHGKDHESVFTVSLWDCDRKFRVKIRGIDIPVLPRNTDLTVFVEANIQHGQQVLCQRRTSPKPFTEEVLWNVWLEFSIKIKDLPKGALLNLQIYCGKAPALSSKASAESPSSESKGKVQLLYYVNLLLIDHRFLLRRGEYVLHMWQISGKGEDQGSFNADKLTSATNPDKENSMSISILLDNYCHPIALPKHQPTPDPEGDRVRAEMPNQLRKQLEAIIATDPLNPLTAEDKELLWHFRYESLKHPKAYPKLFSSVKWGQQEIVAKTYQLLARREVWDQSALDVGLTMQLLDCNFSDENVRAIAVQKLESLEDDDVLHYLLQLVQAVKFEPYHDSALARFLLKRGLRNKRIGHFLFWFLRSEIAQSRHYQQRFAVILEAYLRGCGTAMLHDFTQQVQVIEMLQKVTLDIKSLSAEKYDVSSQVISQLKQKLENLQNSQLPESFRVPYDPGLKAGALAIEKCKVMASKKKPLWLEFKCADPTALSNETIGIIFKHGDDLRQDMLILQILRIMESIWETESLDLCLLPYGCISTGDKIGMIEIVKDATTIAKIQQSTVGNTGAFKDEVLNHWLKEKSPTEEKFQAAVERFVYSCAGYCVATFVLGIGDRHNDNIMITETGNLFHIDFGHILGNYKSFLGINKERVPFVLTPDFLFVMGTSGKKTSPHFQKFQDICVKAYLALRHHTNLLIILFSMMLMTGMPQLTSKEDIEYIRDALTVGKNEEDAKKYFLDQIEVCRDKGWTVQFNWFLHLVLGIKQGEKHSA

Row | SMILES | IC50 [nM]
1 | CC(=O)Nc1nc2c(s1)-c1c(c(C3(C)CC3)nn1-c1ccc(C(=O)NC3CCN(C4CCCC4)CC3)cc1Cl)CC2 | < 600
2 | CC(=O)Nc1nc2c(s1)-c1c(c(C3CC3)nn1-c1ccc(C(=O)N3CC[C@H](CN4CCCC4)C3)cc1Cl)CC2 | < 600
3 | COc1cc(-n2nc(C3CC3)c3c2-c2sc(NC(C)=O)nc2CC3)ccc1C(=O)N1CCC(N(C)C2CCCC2)CC1 | < 600
4 | CC(=O)Nc1nc2c(s1)-c1c(c(C3CC3)nn1-c1ccc(C(=O)N(C)[C@H]3CC[C@@H](N4CCCCC4)CC3)cc1Cl)CC2 | < 600
5 | CC(=O)Nc1nc2c(s1)-c1c(c(C3CC3)nn1-c1ccc(C(=O)N(C)[C@H]3CC[C@@H](N(C)CC4CCCC4)CC3)cc1F)CC2 | < 600
6 | CC(=O)Nc1nc2c(s1)-c1c(c(C3CC3)nn1-c1ccc(C(=O)N(C)C)cc1Cl)CC2 | < 600
7 | CC(=O)Nc1nc2c(s1)-c1c(c(C3CC3)nn1-c1ccc(C(=O)N[C@H]3CC[C@@H](N(C)CC4CCCC4)CC3)c(C)c1)CC2 | < 600
8 | CC(=O)Nc1nc2c(s1)-c1c(c(C3CC3)nn1-c1ccc(C(=O)N3CCC(N(C)C4CCCC4)CC3)c(C)c1)CC2 | < 600
9 | CC(=O)Nc1nc2c(s1)-c1c(c(C3CC3)nn1-c1ccc(C(=O)NC3CCN(C4CCCCC4)CC3)cc1C)CC2 | < 600
10 | CC(=O)Nc1nc2c(s1)-c1c(c(C3CC3)nn1-c1ccccc1Cl)CC2 | < 600
11 | CC(=O)Nc1nc2c(s1)-c1c(c(C3CC3)nn1-c1ccc(C(=O)N(C)[C@@H]3CCN(CC4CCCC4)C3)cc1Cl)CC2 | < 600
12 | CC(=O)Nc1nc2c(s1)-c1c(c(C3CC3)nn1-c1ccc(C(=O)NCC3CCN(CC4CCCC4)CC3)c(Cl)c1)CC2 | < 600
13 | CC(=O)Nc1nc2c(s1)-c1c(c(C3CC3)nn1-c1ccc(C(=O)NC[C@@H]3CCN(C4CCCC4)C3)c(Cl)c1)CC2 | < 600
14 | CC(=O)Nc1nc2c(s1)-c1c(c(C3CC3)nn1-c1ccc(C(=O)N[C@H]3CC[C@@H](N4CCCCC4)CC3)c(C)c1)CC2 | < 600
15 | CC(=O)Nc1nc2c(s1)-c1c(c(C3CCC3)nn1-c1ccc(C(=O)NC3CCN(C(C)C)CC3)cc1Cl)CC2 | < 600
16 | CCCN1CC[C@@H](NC(=O)c2ccc(-n3nc(C4CC4)c4c3-c3sc(NC(C)=O)nc3CC4)cc2F)C1 | < 600
17 | CC(=O)Nc1nc2c(s1)-c1c(c(C3CC3)nn1-c1ccc(NCC3CCCCC3)cc1Cl)CC2 | < 600
18 | COc1cc(-n2nc(C3CC3)c3c2-c2sc(NC(C)=O)nc2CC3)ccc1C(=O)NC1CCN(C2CCCC2)CC1 | < 600
19 | CC(=O)Nc1nc2c(s1)-c1c(c(C3CC3)nn1-c1ccc(C(=O)N[C@H]3CC[C@@H](N4CCCCC4)CC3)c(F)c1)CC2 | < 600
20 | CC(=O)Nc1nc2c(s1)-c1c(c(C3(C)CC3)nn1-c1ccc(C(=O)N[C@H]3CC[C@@H](N4CCCC4)CC3)cc1Cl)CC2 | < 600
21 | CC(=O)Nc1nc2c(s1)-c1c(c(C3CC3)nn1-c1ccc(C(=O)N(C)[C@H]3CC[C@@H](N4CCCC4)CC3)cc1F)CC2 | < 600
22 | CC(=O)Nc1nc2c(s1)-c1c(c(C3CC3)nn1-c1ccc(C(N)=O)cc1Cl)CC2 | < 600
23 | CC(=O)Nc1nc2c(s1)-c1c(c(C3CC3)nn1C1CCN(C(=O)C3CCN(C4CCCC4)CC3)CC1)CC2 | < 600
24 | CC(=O)Nc1nc2c(s1)-c1c(c(C3CC3)nn1-c1ccc(C(=O)NC3CCN(C4CCCCC4)CC3)c(Cl)c1)CC2 | < 600
25 | CC(=O)Nc1nc2c(s1)-c1c(c(C3CCC3)nn1-c1ccccc1Cl)CC2 | < 600
26 | CC(=O)Nc1nc2c(s1)-c1c(c(C3CC3)nn1-c1ccc(C(=O)NC3CCN(C4CCCCC4)CC3)cc1F)CC2 | < 600
27 | CCCN1CCC(NC(=O)c2ccc(-n3nc(C4CC4)c4c3-c3sc(NC(C)=O)nc3CC4)c(Cl)c2)CC1 | < 600

Row | SMILES | IC50 [nM]
28 | CC(=O)Nc1nc2c(s1)-c1c(c(C3CC3)nn1-c1ccc(C(=O)NC3CCN(C4CCOCC4)CC3)cc1Cl)CC2 | < 600
29 | CC(=O)Nc1nc2c(s1)-c1c(c(C3CC3)nn1-c1ccc(N)cc1Cl)CC2 | < 600
30 | CC(=O)Nc1nc2c(s1)-c1c(c(C3CC3)nn1-c1ccccc1C)CC2 | < 600
31 | CC(=O)Nc1nc2c(s1)-c1c(c(C3CC3)nn1-c1ccc(C(=O)N[C@@H]3CCN(CC4CCCC4)C3)c(F)c1)CC2 | < 600
32 | CCCN1CC[C@@H](NC(=O)c2ccc(-n3nc(C4CC4)c4c3-c3sc(NC(C)=O)nc3CC4)cc2C)C1 | < 600
33 | CC(=O)Nc1nc2c(s1)-c1c(c(C3CC3)nn1-c1ccc(C(=O)N(C)[C@@H]3CCN(CC4CCCC4)C3)cc1F)CC2 | < 600
34 | CC(=O)Nc1nc2c(s1)-c1c(c(C3CC3)nn1-c1ccc(C(=O)N(C)CC3CCN(C4CCCC4)CC3)cc1Cl)CC2 | < 600
35 | CC(=O)Nc1nc2c(s1)-c1c(c(C3CC3)nn1-c1ccc(C(=O)N[C@H]3CCN(CC4CCCC4)C3)cc1F)CC2 | < 600
36 | CC(=O)Nc1nc2c(s1)-c1c(c(C3CC3)nn1-c1ccc(C(=O)N[C@@H]3CCN(C4CCCCC4)C3)c(F)c1)CC2 | < 600
37 | CC(=O)Nc1nc2c(s1)-c1c(c(C3CCCC3)nn1-c1ccccc1Cl)CC2 | < 600
38 | CC(=O)Nc1nc2c(s1)-c1c(c(C3CC3)nn1-c1ccc(C(=O)N[C@H]3CC[C@@H](N4CCOCC4)CC3)c(C)c1)CC2 | < 600
39 | CC(=O)Nc1nc2c(s1)-c1c(c(C3CC3)nn1-c1ccc(C(=O)N[C@H]3CC[C@@H](N(C)CC4CCCC4)CC3)c(Cl)c1)CC2 | < 600
40 | CC(=O)Nc1nc2c(s1)-c1c(c(C3CC3)nn1-c1ccc(C(=O)N(C)CC3CCN(CC4CCCC4)CC3)c(Cl)c1)CC2 | < 600
41 | CC(=O)Nc1nc2c(s1)-c1c(c(C3CC3)nn1-c1ccc(C(=O)N(C)[C@H]3CCN(C4CCCCC4)C3)cc1F)CC2 | < 600
42 | CC(=O)Nc1nc2c(s1)-c1c(c(C3CCC3)nn1-c1ccc(C(=O)N[C@H]3CC[C@@H](N4CCCCC4)CC3)cc1Cl)CC2 | < 600
43 | CC(=O)Nc1nc2c(s1)-c1c(c(C3CC3)nn1-c1ccc(C(=O)N[C@@H]3CCN(C4CCCCC4)C3)cc1C)CC2 | < 600
44 | CC(=O)Nc1nc2c(s1)-c1c(c(C3CC3)nn1-c1ccc(C(=O)N(C)[C@H]3CC[C@@H](N(C)CC4CC4)CC3)cc1F)CC2 | < 600
45 | CCN(C(=O)c1ccc(-n2nc(C3CC3)c3c2-c2sc(NC(C)=O)nc2CC3)cc1F)[C@H]1CC[C@@H](N2CCCC2)CC1 | < 600
46 | CC(=O)Nc1nc2c(s1)-c1c(c(C3CC3)nn1-c1ccc(C(=O)N(C)[C@@H]3CCN(C4CCCC4)C3)c(F)c1)CC2 | < 600
47 | CC(=O)Nc1nc2c(s1)-c1c(c(C3CC3)nn1-c1ccccc1)CC2 | < 600
48 | CC(=O)Nc1nc2c(s1)-c1c(c(C3CC3)nn1-c1ccc(C(=O)N[C@H]3CC[C@@H](N4CCCC4)CC3)cc1C)CC2 | < 600
49 | CC(=O)Nc1nc2c(s1)-c1c(c(C3CC3)nn1-c1ccc(C(=O)NC[C@@H]3CCCN3CC3CCCC3)c(Cl)c1)CC2 | < 600
50 | CCCN1CCC(NC(=O)c2ccc(-n3nc(C4CC4)c4c3-c3sc(NC(C)=O)nc3CC4)cc2Cl)CC1 | < 600
51 | CC(=O)Nc1nc2c(s1)-c1c(c(C3CC3)nn1-c1ccc(CC(=O)NC3CCCCC3)cc1Cl)CC2 | < 600
52 | CC(=O)Nc1nc2c(s1)-c1c(c(C3CC3)nn1-c1ccc(C(=O)N(C)[C@H]3CC[C@@H](N4CCCCC4)CC3)cc1C)CC2 | < 600
53 | CC(=O)Nc1nc2c(s1)-c1c(c(C3CC3)nn1-c1ccc(C(=O)N[C@H]3CC[C@@H](N4CCOCC4)CC3)c(Cl)c1)CC2 | < 600
54 | CC(=O)Nc1nc2c(s1)-c1c(c(C3CC3)nn1-c1ccc(CC(=O)N(C)[C@H]3CC[C@@H](N4CCCC4)CC3)cc1Cl)CC2 | < 600
